Reference: publication PMC10822852, “Structural and biochemical insights into the mechanism of the Gabija bacterial immunity system” (Nature Communications, 2024)

B1: GajA (enzyme, Bacillus cereus VD045, UniProt J8H9C1 1-578, looked up)
chain: MKFSNITIKNFRNFEKVNINLDNKNVIFGMNDIGKTNFLYALRFLLDKEIRKFGFNKSDYHKHDTSKKIEIILTLDLSNYEKDEDTKKLISVVKGARTSANADVFYIALESKYDDKELYGNIILKWGSELDNLIDIPGRGNINALDNVFKVIYINPLVDLDKLFAQNKKYIFEESQGNESDEGILNNIKSLTDQVNQQIGEMTIIKGFQQEITSEYRSLKKEEVSIELKSEMAIKGFFSDIIPYIKKDGDSNYYPTSGDGRRKMLSYSIYNYLAKKKYEDKIVIYLIEEPEISLHRSMQIALSKQLFEQSTYKYFFLSTHSPELLYEMDNTRLIRVHSTEKVVCSSHMYNVEEAYGSVKKKLNKALSSALFAERVLLIEGPSEKILFEKVLDEVEPEYELNGGFLLEVGGTYFNHYVCTLNDLGITHIIKTDNDLKSKKGKKGVYELLGLNRCLNLLGRENLDEITIDIPEDIKGKKKKERLNERKKEIFKQYKNEVGEFLGERIYLSEIDLENDLYSAIGESMKRIFENEDPVHYLQKSKLFNMVELVNNLSTKDCFDVFEHEKFACLKELVGSDRG
notes: OLD family nuclease with ATPase domain (1-351) and Toprim domain (352-578); The methods describe only the co-expression and purification of the complex; Cloned into PET-52b; also called GajA1; GajA2; source: E. coli BL21 (DE3), purified (Strep-tactin Sepharose, Superdex 200); co-expressed with GajB for the Gabija complex

Experiments:
[1] = target: T1, Gabija complex (GajA and GajB) (Bacillus cereus, UniProt J8H9C1+J8HQ06); experiment: inhibition of DNA cleavage, agarose gel; assay type: biochemical; settings: 1 mM MgCl2, pH 9, 37 °C, 5 min
T1 construct: full-length GajA (1-578, Strep-tag II) co-expressed with full-length GajB (1-493, 6xHis) in E. coli BL21(DE3); hetero-octamer 4:4

[2] = target: the molecule itself; experiment: SEC-MALS; Superdex 200 10/300 Increase, samples injected at 1 mg/ml in Buffer B (10 mM Tris-HCl pH 7.5, 300 mM NaCl, 2 mM DTT), 0.5 ml/min; GajA, GajB and the co-purified Gabija complex

T1 sequence (J8HQ06 1-493, one chain of several): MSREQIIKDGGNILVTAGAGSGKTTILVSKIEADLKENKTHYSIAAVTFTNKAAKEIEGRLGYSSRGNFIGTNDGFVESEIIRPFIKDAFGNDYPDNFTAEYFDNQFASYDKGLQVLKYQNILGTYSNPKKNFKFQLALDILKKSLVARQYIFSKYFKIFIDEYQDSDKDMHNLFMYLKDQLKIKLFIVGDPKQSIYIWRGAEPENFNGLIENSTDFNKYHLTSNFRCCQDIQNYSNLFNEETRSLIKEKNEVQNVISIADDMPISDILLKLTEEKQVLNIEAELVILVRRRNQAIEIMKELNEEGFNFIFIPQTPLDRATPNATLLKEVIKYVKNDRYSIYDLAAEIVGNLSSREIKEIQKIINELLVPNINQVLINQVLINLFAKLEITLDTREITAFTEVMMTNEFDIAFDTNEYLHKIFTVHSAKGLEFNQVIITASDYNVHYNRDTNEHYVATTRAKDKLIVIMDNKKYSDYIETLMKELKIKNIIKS

Molecule | inhibition of DNA cleavage, agarose gel ([1]; supercoiled pUC19-15 plasmid) | also measured
Nc1ncnc2c1ncn2[C@@H]1O[C@H](COP(=O)(O)OP(=O)(O)O)[C@@H](O)[C@H]1O [ADP] | significantly inhibited by different NTP, dNTP, ADP, but not AMP | 
Nc1ncnc2c1ncn2[C@@H]1O[C@H](COP(=O)(O)OP(=O)(O)NP(=O)(O)O)[C@@H](O)[C@H]1O [AMP-PNP] |  | inhibition of DNA cleavage, agarose gel ([1]; non-hydrolysable ATP analogue, DNA substrate not given): cleavage activity of the Gabija complex is also inhibited by AMP-PNP
Nc1nc2c(ncn2[C@@H]2O[C@H](COP(=O)(O)OP(=O)(O)OP(=O)(O)O)[C@@H](O)[C@H]2O)c(=O)[nH]1 [GTP] | significantly inhibited with the increased concentration of ATP and GTP | 
B1 |  | stoichiometry N [2]: 4
